# Values of other authors as cited in patent publication US20230338288A1, “ASYMMETRIC CHARGED VESICLES AND METHODS OF PREPARING AND USE THEREOF” (The Research Foundation for the State University of New York, priority 2020, published 2023).
# Conditions: compared with Doxil (liposome-encapsulated Dox)
compound,measurement,value
"COc1cccc2c1C(=O)c1c(O)c3c(c(O)c1C2=O)C[C@@](O)(C(=O)CO)C[C@@H]3O[C@H]1C[C@H](N)[C@H](O)[C@H](C)O1 [Dox, Doxorubicin]","dose that can be delivered without exhibiting cardiotoxicity, fold less than with Doxil",10-50 fold
